Assay [1] has as its target ENL YEATS domain (Homo sapiens (Human), UniProt Q03111). The experiment in a line: TR-FRET ENL Screening Assay. The following applies: 6xHIS ENL YEATS domain binding to H3K9cr peptide. How it is done: Compounds of the invention were tested in a TR-FRET ENL Screening Assay. TR-FRET (time-resolved fluorescence energy transfer) can be used to quantify ENL YEATS domain binding to a crotonylated histone peptide (H3K9cr, aa1-20). Streptavidin-Europium (Eu) chelate binds the biotinylated peptide, while Anti-6×HIS ULight™ binds 6×HIS-ENL. When Eu chelate is excited at 320 nm, fluorescence resonance energy transfer (FRET) occurs if Eu and ULight are made proximal by ENL binding to the acyl-peptide.
Low control (LC) wells received 5 μL of assay buffer instead of ENL protein. […] The response at each compound concentration minus the LC value was converted to percent inhibition of the vehicle control group response (HC-LC).
(In general: Time-resolved FRET reads energy transfer from a long-lived donor to a nearby acceptor.)

The subject of assay [2] is MV4:11 (MLL-AF4 MLL) cells. The experiment in a line: Cell viability assay (CellTiter-Glo), 12 days. The class given is cell-based. The following applies: Homo sapiens, 288 h, MV4;11 cells, 12 day, read-out: CTG_MV4, 11 12 DAY_EC50. As to the method: The assays were conducted over 12 days and the cells being split on days 4 and 8. […] Blank wells received cell culture medium. Plates were incubated for 4 days at 37° C. with 5% CO2. On days 4 and day 8 the cells were split and incubated for a further 4 days whilst an aliquot of cells were taken for the CTG readout. For the cell splitting, 270 nL of compounds or DMSO was added to a new 96 well cell culture plate to which 90 μL of medium plus 10 μL of cells from the original assay plate (after mixing) or 100 μL of medium (Blank wells) was added. This was repeated on day 8.
Cell viability was assessed using the CellTiter-Glo® homogeneous luminescent assay kit (Promega, G9243), according to the manufacturer's instructions. This quantifies ATP, which indicates the presence of metabolically active cells. […] The resulting data were analyzed as follows:
where vehicle are cells treated with 0.3% DMSO, Blank is culture medium. IC50 determinations were calculated by fitting the curve using XLfit (v5.3.1.3): Y=Bottom+(Top−Bottom)/(1+10^((LogIC50−X)*HillSlope)).
On the technique in general: ATP-based viability assays read luminescence as a measure of living cells.

Seven molecules from patent US20250136592A1, “C-LINKED INHIBITORS OF ENL/AF9 YEATS” (Bridge Medicines, priority 2021, published 2025) can be followed below.

ENL YEATS domain, sequence (Q03111 1-138): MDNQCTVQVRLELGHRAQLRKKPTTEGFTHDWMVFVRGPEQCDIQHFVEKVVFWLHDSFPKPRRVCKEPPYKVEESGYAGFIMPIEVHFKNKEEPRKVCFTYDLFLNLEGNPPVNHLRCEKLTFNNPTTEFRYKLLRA

`CN1CCCC[C@@H]1c1cc2cnc(NC(=O)c3ccc4c(c3)N(C)S(=O)(=O)C4)cc2[nH]1` [Example 96]: the IC50 – broadly, the concentration that inhibits the measured activity by half – in assay [1] amounted to 250 nM. For the same molecule, the EC50 in assay [2] is 319 nM.
As to `CN1CCCC[C@@H]1c1cc2cnc(NC(=O)c3ccc4c(ccc(=O)n4C)c3)cc2[nH]1` [Example 99, (R)-1-methyl-N-(2-(1-methylpiperidin-2-yl)-1H-pyrrolo[3,2-c]pyridin-6-yl)-2-oxo-1,2-dihydroquinoline-6-carboxamide], in assay [1], the IC50 came out at 56 nM. In addition, in assay [2], the EC50 is 293 nM.
With `CN1CCCC[C@@H]1c1cc2cnc(NC(=O)c3ccc4c(=O)n(C)cnc4c3)cc2[nH]1` [Example 101, (R)-3-methyl-N-(2-(1-methylpiperidin-2-yl)-1H-pyrrolo[3,2-c]pyridin-6-yl)-4-oxo-3,4-dihydroquinazoline-7-carboxamide], the IC50 in assay [1] was found to be 177 nM. Further, in assay [2], the EC50 turned out to be 426 nM.
For `CN1CCCC[C@@H]1c1cc2cnc(NC(=O)c3ccc4ncn(C)c(=O)c4c3)cc2[nH]1` [Example 102, (R)-3-methyl-N-(2-(1-methylpiperidin-2-yl)-1H-pyrrolo[3,2-c]pyridin-6-yl)-4-oxo-3,4-dihydroquinazoline-6-carboxamide] the same measures were 200 nM and 289 nM.
For `Cc1nn(C)c(=O)c2cc(C(=O)Nc3cc4[nH]c([C@H]5CCCCN5C)cc4cn3)ccc12` [Example 103, (R)-1,3-dimethyl-N-(2-(1-methylpiperidin-2-yl)-1H-pyrrolo[3,2-c]pyridin-6-yl)-4-oxo-3,4-dihydrophthalazine-6-carboxamide] the same measures were 148 nM and 292 nM.
For `Cc1nn(C)c(=O)c2ccc(C(=O)Nc3cc4[nH]c([C@H]5CCCCN5C)cc4cn3)cc12` [Example 104, (R)-2,4-dimethyl-N-(2-(1-methylpiperidin-2-yl)-1H-pyrrolo[3,2-c]pyridin-6-yl)-1-oxo-1,2-dihydrophthalazine-6-carboxamide] the same measures were 160 nM and 492 nM.
With `CN1C(=O)COc2cc(C(=O)Nc3cc4[nH]c([C@H]5CCCCN5C)cc4cn3)ccc21` [Example 105, (R)-4-methyl-N-(2-(1-methylpiperidin-2-yl)-1H-pyrrolo[3,2-c]pyridin-6-yl)-3-oxo-3,4-dihydro-2H-benzo[b][1,4]oxazine-7-carboxamide], the half-maximal inhibitory concentration (IC50) in assay [1] amounted to 145 nM. The EC50 in assay [2] is 416 nM.
